Values after ≈ are worked out from the molar mass of the structure shown.
Legend:
collagenase = type: cell-based, calf; conditions: primary chondrocytes, pre-incubation 6 hours, then IL-1 20 ng/ml 18 hours; 'as low as'
Method: Primary chondrocyte cultures were freshly isolated from calf cartilage. The cells were plated at 2.5×10^6 per ml in 100×20 mm culture dishes and incubated in Ham's F12 medium containing 5% FBS overnight at 37° C. The cells were starved in serum-free medium overnight and then treated with anti-microtubule agents at various concentrations for 6 hours. IL-1 (20 ng/ml) was then added to each plate and the plates incubated for an additional 18 hours. Total RNA was isolated by the acidified guanidine isothiocyanate method and subjected to electrophoresis on a denatured gel. Denatured RNA samples (15 μg) were analyzed by gel electrophoresis in a 1% denatured gel, transferred to a nylon membrane and hybridized with the ^32P-labeled collagenase cDNA probe. ^32P-labeled glyceraldehyde phosphate […] (GAPDH) cDNA as an internal standard to ensure roughly equal loading. The exposed films were scanned and quantitatively analyzed with IMAGEQUANT.

C. glabrata = conditions: manganese compound as enhancer; cited from earlier work
[1] = solvent named in the value; cited from earlier work
[2] = particularly in normal saline; cited from earlier work
[3] = system: Candida spp., Aspergillus spp., Sporothrix schenckii, Penicillium marneffei, Malassezia furfur, Cryptococcus neoformans, Trichosporon spp. and …; conditions: against most Candida spp., Aspergillus spp. and other listed fungi; cited from earlier work
[4] = system: Primary human smooth muscle cells; assay: Smooth muscle cell migration assay (Boyden chamber, rhPDGF-BB chemotaxis); type: cell-based; conditions: chemotaxis in response to rhPDGF-BB 10 ng/ml, 4 hours
Method: Primary human smooth muscle cells were starved of serum in smooth muscle cell basal media containing insulin and human basic fibroblast growth factor (bFGF) for 16 hours prior to the assay. For the migration assay, cells were trypsinized to remove cells from flasks, washed with migration media and diluted to a concentration of 2-2.5×10^5 cells/ml in migration media. […] A 100 μL volume of smooth muscle cells (approximately 20,000-25,000 cells) was added to the top of a Boyden chamber assembly (Chemicon QCM CHEMOTAXIS 96-well migration plate). To the bottom wells, the chemotactic agent, recombinant human platelet derived growth factor (rhPDGF-BB) was added at a concentration of 10 ng/ml in a total volume of 150 μL. […] Plates were incubated for 4 hours to allow cell migration.
At the end of the 4-hour period, cells in the top chamber were discarded and the smooth muscle cells attached to the underside of the filter were detached for 30 minutes at 37° C. in Cell Detachment Solution (Chemicon). […] Relative fluorescence units from triplicate wells were averaged after subtracting background fluorescence (control chamber without chemoattractant) and average number of cells migrating was obtained from a standard curve of smooth muscle cells serially diluted from 25,000 cells/well down to 98 cells/well.

collagenase-1 (MMP-1) = assay: IL-1 induced MMP-1 (collagenase) mRNA expression in chondrocytes, Northern blot; type: cell-based
Method: (§1) Cells were treated with paclitaxel at various concentrations (10^−7 to 10^−5 M) for 24 hours, then treated with IL-1β (20 ng/ml) for additional 18 hours in the presence of paclitaxel. Total RNA was isolated, and the MMP-1 mRNA levels were determined by Northern blot analysis. The blots were subsequently stripped and reprobed with ^32P-radiolabeled rat GAPDH cDNA, which was used as a housekeeping gene. […] Quantitation of collagenase-1 and stromelysin-expression mRNA levels was conducted. The MMP-1 and MMP-3 expression levels were normalized with GAPDH.

AP-1 = assay: IL-1 induced AP-1 DNA binding activity, gel mobility shift assay; type: cell-based; conditions: chondrocyte nuclear lysates, pretreated with paclitaxel 10^−7 to 10^−5 M for 24 hours
Method: Binding activity was assayed with a radiolabeled human AP-1 sequence probe and gel mobility shift assay. Extracts from chondrocytes untreated or treated with various amounts of paclitaxel (10^−7 to 10^−5 M) followed by IL-1β (20 ng/ml) were incubated with excess probe on ice for 30 minutes, followed by non-denaturing gel electrophoresis. The “com” lane contains excess unlabeled AP-1 oligonucleotide.

stromelysin (MMP-3) = assay: IL-1 induced MMP-3 (stromelysin) mRNA expression in chondrocytes, Northern blot; type: cell-based
Method: as §1

p38 and JNK = conditions: cited from earlier work
ERK = conditions: cited from earlier work
NFAT = conditions: cited from earlier work
GRE reporter plasmid = conditions: T cells; cited from earlier work
joint swelling = conditions: chronic / adjuvant model; component alone (prednisolone at reduced dose); cited from earlier work
NFkB and AP1 = conditions: cited from earlier work
TNF-α = conditions: acute in vivo model; component alone (prednisolone at reduced dose); cited from earlier work
S. epidermidis C621 = assay: MIC by microtitre broth dilution; type: cell-based; conditions: Staphylococcus epidermidis; S. epidermidis C621 wt Gram+; Mueller Hinton broth, 37° C., 24 h; read-out: Minimum inhibitory concentration
Method: (§2) MIC assays were conducted essentially as described by Amsterdam, D. 1996, “Susceptibility testing of antimicrobials in liquid media”, p. 52-11, in Loman, V., ed. Antibiotics in laboratory medicine, 4th ed. Williams and Wilkins, Baltimore, Md.

[5] = system: P. aeruginosa PAE/K799 H187; assay: MIC by microtitre broth dilution; type: cell-based; conditions: Pseudomonas aeruginosa; P. aeruginosa PAE/K799 H187 wt Gram−; Mueller Hinton broth, 37° C., 24 h; read-out: Minimum inhibitory concentration
Method: as §2

S. pyogenes C721 = assay: MIC by microtitre broth dilution; type: cell-based; conditions: Streptococcus pyogenes; S. pyogenes C721 wt Gram+; Todd Hewitt broth, 37° C., 24 h; read-out: Minimum inhibitory concentration
Method: as §2

S. aureus ATCC25923 C622 = assay: MIC by microtitre broth dilution; type: cell-based; conditions: Staphylococcus aureus; S. aureus ATCC25923 C622 wt Gram+; Mueller Hinton broth, 37° C., 24 h; read-out: Minimum inhibitory concentration
Method: as §2

[6] = system: phosphatases of regenerating liver (PRL); conditions: cited from earlier work
endo-exonuclease = conditions: cited from earlier work
[7] = target: protein tyrosine phosphatase 1B (PTP1B) (Homo sapiens, UniProt P18031); conditions: cited from earlier work
[8] = 10^−5 M paclitaxel, 24 hours pretreatment
[9] = chondrocytes pretreated with paclitaxel for 24 hours

Chain of protein tyrosine phosphatase 1B (PTP1B) (P18031 whole entry): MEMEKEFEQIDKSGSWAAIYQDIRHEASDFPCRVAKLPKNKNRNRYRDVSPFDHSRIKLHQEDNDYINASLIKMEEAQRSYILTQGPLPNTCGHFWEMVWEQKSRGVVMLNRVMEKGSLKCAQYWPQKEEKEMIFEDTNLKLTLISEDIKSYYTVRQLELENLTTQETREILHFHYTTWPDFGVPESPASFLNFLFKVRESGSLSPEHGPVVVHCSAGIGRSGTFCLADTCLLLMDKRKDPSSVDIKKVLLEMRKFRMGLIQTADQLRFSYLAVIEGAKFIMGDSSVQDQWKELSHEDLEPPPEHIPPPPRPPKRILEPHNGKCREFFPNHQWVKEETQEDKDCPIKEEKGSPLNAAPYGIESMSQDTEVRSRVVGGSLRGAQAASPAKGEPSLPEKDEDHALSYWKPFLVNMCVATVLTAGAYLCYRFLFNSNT

With `N#CC1=C(N)Oc2c(ccc3ccccc23)C1c1cccc([N+](=O)[O-])c1` (stereo not shown) [LY290181] the “lowest concentration that prevented IL-1-induced collagenase expression” value (collagenase) was 100 nM.
In the case of `OC(Cn1cncn1)(Cn1cncn1)c1ccc(F)cc1F` [fluconazole], the “anti-fungal activity against C. glabrata in combination with a manganese compound” value (from here on “anti-fungal activity against C. glabrata”) (C. glabrata) is listed as “enhances”.
In the case of `Nc1ncnc2c1ccn2[C@@H]1O[C@H](CO)[C@@H](O)[C@H]1O` [tubercidin], the “lowest concentration that prevented IL-1-induced collagenase expression” value (collagenase) is reported as 100 nM.
In the case of hexylene glycol, the “lowest concentration that prevented IL-1-induced collagenase expression” value (collagenase) is reported as 100 nM.
For “ethylene glycol bis-(succinimidylsuccinate)”, the “lowest concentration that prevented IL-1-induced collagenase expression” value (collagenase) was 100 nM.
For `C[C@@H]1[C@H](O)[C@@H](C)/C=C/C=C/C=C/C=C/C=C/C=C/C=C/[C@H](O[C@@H]2O[C@H](C)[C@@H](O)[C@H](N)[C@@H]2O)C[C@@H]2O[C@](O)(C[C@@H](O)C[C@@H](O)[C@H](O)CC[C@@H](O)C[C@@H](O)CC(=O)O[C@H]1C)C[C@H](O)[C@H]2C(=O)O` [Amphotericin B, amphotericin B], the “solubility, in words” value [1] is listed as “poorly water soluble” and the stability in solution [2] is listed as “unstable in solution”.
In the case of `CN(C/C=C/C#CC(C)(C)C)Cc1cccc2ccccc12.Cl` [terbinafine], the “in vitro anti-fungal activity” value [3] is given as “has activity” and the “anti-fungal activity against C. glabrata” value (C. glabrata) is given as “enhances”.
For `Nc1ccc(/N=N/c2ccccc2)c(N)n1` [Phenazopyridine base, phenazopyridine], the “solubility, in words” value [1] is listed as “slightly soluble in water and alcohol”.
For `CC(=O)O[C@H]1C(=O)[C@@]2(C)[C@H]([C@H](OC(=O)c3ccccc3)[C@]3(O)C[C@H](OC(=O)[C@H](O)[C@@H](NC(=O)c4ccccc4)c4ccccc4)C(C)=C1C3(C)C)[C@]1(OC(C)=O)CO[C@@H]1C[C@@H]2O` [paclitaxel], the IC50 [4] was 0.76 nM, the “collagenase mRNA levels (IL-1 induced)” value (collagenase-1 (MMP-1); [8]) was “complete inhibition” and the “collagenase mRNA levels (IL-1 induced)” value (collagenase-1 (MMP-1); [9]) was “significantly reduced”. For the same compound, the “concentration inhibiting collagenase expression in vitro” value (collagenase-1 (MMP-1); chondrocytes, IL-1 induced) was 10^−6 M, the “IL-1 induced AP-1 binding activity to oligonucleotides” value (AP-1) was “decreased” and the “stromelysin mRNA levels (IL-1 induced)” value (stromelysin (MMP-3); [8]) was “complete inhibition”. For the same compound, the “stromelysin mRNA levels (IL-1 induced)” value (stromelysin (MMP-3); [9]) was “significantly reduced” and the “concentration inhibiting stromelysin expression in vitro” value (stromelysin (MMP-3); chondrocytes, IL-1 induced) was 10^−6 M.
In the case of `CN(C)/N=N/c1[nH]cnc1C(N)=O` [Dacarbazine, dacarbazine], the “solubility, in words” value [1] is listed as “poorly soluble in water and ethanol”.
With epothilone the “lowest concentration that prevented IL-1-induced collagenase expression” value (collagenase) was 100 nM.
With `[F][Al]([F])[F]` [AIF3] the “lowest concentration that prevented IL-1-induced collagenase expression” value (collagenase) was 100 nM.
For `NNCCc1ccccc1` [Phenelzine, phenelzine], the “solubility, in words” value [1] is given as “highly soluble in water and very poorly soluble in alcohol”.
For `Clc1ccc2c(c1)C(N1CCNCC1)=Nc1ccccc1O2` [amoxapine], the “effect on p38 and JNK activation” value (p38 and JNK) is given as “Inhibition”, the “effect on ERK activation” value (ERK) is given as “unaffected” and the “effect on NFAT activation, translocation and transactivation” value (NFAT) is given as “block”. The “potentiation of prednisolone's ability to transactivate a GRE reporter plasmid” value (GRE reporter plasmid) was “does not potentiate”, the “effect of the individual components alone on joint swelling” value (joint swelling) was “modest or no benefit” and the “effect on NFkB and AP1 activation” value (NFkB and AP1) was “partially inhibits”. The “effect of the individual components alone on TNF-α production” value (TNF-α) was “modest or no benefit”.
In the case of `CCC(C)n1ncn(-c2ccc(N3CCN(c4ccc(OC[C@H]5CO[C@](Cn6cncn6)(c6ccc(Cl)cc6Cl)O5)cc4)CC3)cc2)c1=O` (mixture of isomers) [itraconazole], the “anti-fungal activity against C. glabrata” value (C. glabrata) is given as “enhances”.
`CC[C@@]1(O)C(=O)OCc2c1cc1n(c2=O)Cc2cc3ccccc3nc2-1` [camptothecin] gave an MIC (S. epidermidis C621) of 100 µM (≈ 34.8 µg/mL).
In the case of `[2H]O[2H]` [deuterium oxide], the “lowest concentration that prevented IL-1-induced collagenase expression” value (collagenase) is reported as 100 nM.
For `CC[C@H](C)C[C@H](C)CCCCCCCCC(=O)N[C@H]1C[C@@H](O)[C@@H](NCCN)NC(=O)[C@@H]2[C@@H](O)CCN2C(=O)[C@H]([C@H](O)CCN)NC(=O)[C@H]([C@H](O)[C@@H](O)c2ccc(O)cc2)NC(=O)[C@@H]2C[C@@H](O)CN2C(=O)[C@H]([C@@H](C)O)NC1=O` [caspofungin], the “anti-fungal activity against C. glabrata” value (C. glabrata) is listed as “enhances”.
In the case of `NC(=O)c1ncn([C@@H]2O[C@H](CO)[C@@H](O)[C@H]2O)n1` [Ribavirin, ribavirin], the “solubility, in words” value [1] is given as “only slightly soluble in alcohol”.
`O=c1[nH]cc(F)c(=O)[nH]1` [5-fluorouracil] gave an MIC [5] of 10 µM (≈ 1.3 µg/mL), an MIC (S. pyogenes C721) of 100 µM (≈ 13 µg/mL) and an MIC (S. epidermidis C621) of 0.1 µM (≈ 0.013 µg/mL). For the same compound, the MIC (S. aureus ATCC25923 C622) was 0.1 µM (≈ 0.013 µg/mL).
In the case of `C[N+]1(CCCCC[N+]2(C)CCCC2)CCCC1` [Pentolinium ditartrate, pentolinium], the “solubility, in words” value [1] is listed as “highly soluble in water”.
For `COc1c2occc2cc2ccc(=O)oc12` [Methoxsalen, methoxsalen], the “solubility, in words” value [1] is given as “very poorly soluble in water, slightly soluble in alcohol, and readily soluble in propylene glycol”.
For `N=C(N)c1ccc(OCCCCCOc2ccc(C(=N)N)cc2)cc1` [Pentamidine isethionate, pentamidine isethionate], the “solubility, in words” value [1] is given as “soluble in water and glycerin and insoluble in ether, acetone, and chloroform”.
In the case of `CC(=O)N1CCN(c2ccc(OC[C@@H]3CO[C@@](Cn4ccnc4)(c4ccc(Cl)cc4Cl)O3)cc2)CC1` (racemic) [ketoconazole], the “solubility, in words” value [1] is listed as “essentially insoluble in water”.
In the case of `N=C(N)c1ccc(OCCCCCOc2ccc(C(=N)N)cc2)cc1` [pentamidine], the “inhibition of the oncogenic phosphatases of regenerating liver (PRL)” value [6] is given as “potent inhibitor”, the “inhibition of the activity of endo-exonuclease” value (endo-exonuclease) is given as “inhibit” and the “inhibition of protein tyrosine phosphatase 1B (PTP1B)” value [7] is given as “effective inhibitor”.
With `CCOC(=O)CN` [glycine ethyl ester] the “lowest concentration that prevented IL-1-induced collagenase expression” value (collagenase) was 100 nM.

— patent US20070198063A1, “Electrical devices and anti-scarring drug combinations” (priority 2005, published 2007)
